Here are results for two compounds from patent US20130116292A1, “NEURORESTORATION WITH R(+) PRAMIPEXOLE” (University of Virginia Patent Foundation, priority 2005, published 2013).

The test system of data set [1] is mitochondrial transition pore (MTP). Conditions: induced by MPP+ and other stimuli; cited from earlier work.
Data set [2] concerns oxidative stress produced by MPP+ (ETC complex I inhibitor). Conditions: both in vitro and in vivo; cited from earlier work.
Data set [3] has as its system D2 family of dopamine receptors. Conditions: cited from earlier work.
The test system of data set [4] is dopamine neurons (MPTP toxicity). Conditions: cellular and animal models of increased oxidative stress, including MPTP toxicity to dopamine neurons; cited from earlier work.
Data set [5] has as its system patients with amyotrophic lateral sclerosis (ALS). Conditions: 30 mg/day for up to 8 weeks. How it is done: Phase I clinical studies with R(+) pramipexole were conducted in patients with amyotrophic lateral sclerosis (ALS), a fatal adult neurodegenerative disease arising from the loss of motor nerve cells. […] These reports included such things as regaining the ability to speak coherently, the ability to climb stairs again, and improved motor skills in their extremities, i.e. hands and/or fingers.

For `CCCN[C@H]1CCc2nc(N)sc2C1` [S(−) PPX], the “effect on opening of the mitochondrial transition pore (MTP)” value in data set [1] is listed as “can block the opening”. Also, the “effect on oxidative stress produced by MPP+” value in data set [2] is on record as “reduces oxidative stress”. Besides, in data set [3], the “agonism of the D2 family of dopamine receptors” value was “potent agonist”. For the same compound, in data set [4], the neuroprotection entry is “neuroprotective”.

Consider `CCCN[C@@H]1CCc2nc(N)sc2C1` [R(+) pramipexole, R-(+)-2-amino-4,5,6,7-tetrahydro-6-propylaminobenzathiazole], for which the “stability in aqueous solutions” value is reported as “stable in aqueous solutions”. The “patients reporting improvements in motor function” value in data set [5] was “approximately half the patients”. Besides, in data set [3] (Schneider and Mierau, J. Med. Chem. 1987), the dopamine agonist activity entry is reported as “very little”.
